Measurements: US20230040415A1 (PureTech LYT 100, Inc., priority 2020, published 2023)
Read-outs that look alike come from different tables or passages of the source.

Assays:
[1] = Single-dose crossover clinical trial, 801 mg LYT-100 vs pirfenidone, plasma pharmacokinetics; details: for Cmax / % AUC extrap / AUC0-t / AUC(inf) / Kel / t1/2 / tmax: fed, analyte = label; for Cmax / % AUC extrap / AUC0-t / AUC(inf) / Kel / t1/2: mean; for Cmax: n = 24; for tmax: median
From the text: Following screening, eligible healthy volunteer subjects were admitted to a single clinical study site and were randomized to 1 of 2 treatment sequences. […] In each period, a standardized breakfast was provided to subjects prior to administration of study drug (to compare the PK profiles in the clinically relevant fed state) and plasma samples were collected over a 48-hour period after dosing for evaluation of PK. Dosing between the 2 periods was separated by a minimum of 7 days. Subjects completed the study upon completion of the 48-hour post-dose assessments following dosing period 2.
All capsules were identical in size, shape, and external color.
The mean Cmax values are computed from each individual subjects Cmax value (which could occur at different Tmax times for each individual), i.e., the mean Cmax value reported in the PK parameter table is not the Cmax for a mean concentration-time curve.

[2] = Repeat dose oral toxicity and toxicokinetics study in Sprague Dawley rats; details: for dose proportionality of AUC0-24 / dose proportionality of Cmax: SD-560 250 to 750 mg/kg, Groups 2 to 4; for exposure in rat relative to human: male rat after 28 days of daily dosing vs human
Procedure: The protocol was amended to add additional TK male animals in Group 6 for Day 1 collection of TK samples at 875 mg/kg.
Blood samples were collected from 3 subsets of 3 animals/sex on Day 1 and Day 28 at predose, 0.25, 0.5, 1, 2, 4, 8 and 24 hours (hr) post-dose for groups 2 to 6 and from one subset of 3 animals/sex at 0.25 hr post-dose for the vehicle group (group 1). […] Non-compartmental analysis (NCA) of plasma concentration data was conducted using Phoenix® WinNonlin®, version 8.0.

[3] = Multiple ascending dose (MAD) study Part 1, plasma pharmacokinetics
Procedure: All Part 1 cohorts will be dosed every 12 hours with food for 5 days.
During the treatment period (Day 1 through Day 5), subjects will be administered their assigned study medication BID, every 12 h±0.25 h (with approximately 240 mL of non-carbonated water), 30 minutes after the start of consumption of their standardised breakfast or dinner (12 h apart). A standardised lunch will be served >4 h post breakfast and >4 h prior to dinner. An evening snack will be served >3 h following evening study medication administration. No additional fluids will be allowed during the 1 h pre- and post-doses. On Day 6, subjects will replicate mealtimes as scheduled on Day 1-5. To ensure study drug dosing every 12 hours, here is an example of meal and dosing schedule in Part 1: • Breakfast: meal to be served 30 mins prior to AM dosing. Breakfast must be completed within 30 mins of start time. • Lunch: meal to be served at least 4 h post-AM study drug dose. • Dinner: meal to be served at least 11.5 h post-AM dose and served 30 minutes prior to PM study drug dose. • Evening snack: Snack to be served at least 15 h post-AM dose (at least 3 h post-PM dose).
In Part 1, blood samples (4 mL each) for PK will be collected for Cohorts 1, 2, 3, 4, and 6 at specified times (hours) at each as follows: • Day 1 and Day 5: 0 (pre-dose), 0.5, 1, 1.5, 2, 2.5, 3, 3.5, 4, 6, 8, 12 (pre-dose), 13, 14, 15, 16, 18 h • Day 2, Day 3 and Day 4: 0 (pre-morning-dose) and 12 h (pre-evening-dose) • Day 6: 12, 18, 24 and 36 h post-last dose • Day 7: 48 h (post-last dose)
Pharmacokinetics for Day 1 to 3 in Part 2 (fed state) will be compared to PK for Day 1 to Day 3 in Part 2 (fasted state). Plasma PK parameters (non-compartmental or compartmental analysis as appropriate) will include, but are not limited to: • Following single dose: Tmax, tlag, Cmax, AUC0-4, AUC0-last, AUC0-inf, lambda z, % AUCext, CL/F, Vz/F, Cmax/D, AUC0-last/D, AUC0-inf/D and MRT (D is dose) • After repeated doses: Ctrough, Ctrough/D • Following repeated doses on last day: Tmax, Cmax, Cavg, tlag, t1/2, AUC0-4, AUC0-last, AUC0-inf, lambda z, % AUCext, CLss/F, Vzss/F, MRT, PTF, Rac(AUC), Rac(Cmax), Cmax/D, AUClast/D, AUC0-inf/D and Rac (accumulation ratio) Part 3 (Patients with Secondary Lymphoedema Post-Axillary/Post-Sentinel Node Dissection)

[4] = parameters: AUC, Fasted / AUC, Fed: unit not given beside the values; details: cited from earlier work; for share of recovered drug material in urine excreted as label: humans, oral pirfenidone
[5] = Food effect study Part 2, single 500 mg dose fed vs fasted; type: in vivo, human
Procedure: The comparison will be based on Day 1, Day 2 and Day 3 PK plasma samples after the first dose of study drug on Day 1 under fast and fed conditions of Part 2.
Subjects will be admitted to the CRU on Day −1 and will fast overnight for at least 10 h.

[6] = cited from earlier work
[7] = Day 1, Female, label = Group 4 analyte vs its non-deuterated counterpart
[8] = FIG. 23 (Cohort 6, 1000 mg BID)
[9] = LYT-100 100, 250, 500, 750 mg BID cohorts (FIG. 19)
[10] = Treatment = LYT-100, single 801 mg oral dose
[11] = Treatment = LYT-100, single 801 mg
[12] = Treatment = Pirfenidone, single 801 mg oral dose
[13] = Treatment = Pirfenidone, single 801 mg
[14] = LYT-100 @500 mg single dose, analyte = label
[15] = LYT-100 @500 mg, 5-CO2 metabolite

In the case of `[2H]C([2H])([2H])c1ccc(=O)n(-c2ccc(O)cc2)c1` [LYT-103, d3-4′-hydroxy-pirfenidone], the “quantifiability of metabolite in human” value ([1]; after LYT-100) is reported as “not quantifiable”, the “AUC ratio Group 4 (LYT-100 at 750 mg/kg) / Group 5 (SD-559 at 750 mg/kg)” value [2, 7] is reported as 21.77 and the “AUC ratio Group 4 (LYT-100 at 750 mg/kg) / Group 5 (SD-559 at 750 mg/kg)” value ([2]; Day 1, Male) is reported as 34.51. For the same molecule, the “AUC ratio Group 4 (LYT-100 at 750 mg/kg) / Group 5 (SD-559 at 750 mg/kg)” value ([2]; Day 28, Female) was 38.04, the “dose proportionality of AUC0-24” value [2] was “dose proportionally” and the “dose proportionality of Cmax” value [2] was “less than dose proportional”. The “average ratio of metabolite to the parent (M/P) by AUC” value (“average ratio … (M/P) by AUC” for short) [3, 8] was 0.0037 (0.0030-0.0058) and the “average ratio … (M/P) by AUC” value [3, 9] was 0.0017 (0.0012-0.0022).

With `O=C(O)c1ccc(=O)n(-c2ccccc2)c1` [LYT-105, 5-carboxy-pirfenidone] the Cmax [1, 10] was 3970 ng/mL, the “% AUC extrap” value [1, 11] was 1.13% and the AUC0-t [1, 11] was 23090 ng·h/mL. The “AUC(inf)” value [1, 11] was 23350 ng·h/mL, the Kel [1, 11] was 0.262 h⁻¹ and the t1/2 [1, 11] was 2.91 h. For the same molecule, the tmax [1, 11] was 2.50 h, the Cmax [1, 12] was 5241 ng/mL and the “% AUC extrap” value [1, 13] was 0.843%. For the same molecule, the AUC0-t [1, 13] was 26932 ng·h/mL, the “AUC(inf)” value [1, 13] was 27159 ng·h/mL and the Kel [1, 13] was 0.288 h⁻¹. For the same molecule, the t1/2 [1, 13] was 2.55 h, the tmax [1, 13] was 3.00 h and the “Cmax reduction of 5-carboxy-pirfenidone after LYT-100 relative to pirfenidone” value ([1]; single 801 mg dose each) was 25%. The “plasma exposure relative to exposure to pirfenidone” value ([4]; Huang, 2013) was “approximately 50%”, the “share of recovered drug material in urine excreted as label” value [4] was greater than 95% and the “AUC ratio Group 4 (LYT-100 at 750 mg/kg) / Group 5 (SD-559 at 750 mg/kg)” value [2, 7] was 0.49. For the same molecule, the “AUC ratio Group 4 (LYT-100 at 750 mg/kg) / Group 5 (SD-559 at 750 mg/kg)” value ([2]; Day 1, Male) was 0.45, the “AUC ratio Group 4 (LYT-100 at 750 mg/kg) / Group 5 (SD-559 at 750 mg/kg)” value ([2]; Day 28, Female) was 0.71 and the “AUC ratio Group 4 (LYT-100 at 750 mg/kg) / Group 5 (SD-559 at 750 mg/kg)” value ([2]; Day 28, Male) was 0.57. For the same molecule, the “lower Cmax and exposure than SD-789 formed from SD-559” value ([2]; SD-560 750 mg/kg vs SD-559 750 mg/kg) was “approximately 50%”, the “dose proportionality of AUC0-24” value [2] was “dose proportional” and the “dose proportionality of Cmax” value [2] was “approximately dose proportional”. For the same molecule, the “exposure in rat relative to human” value [2] was roughly 7 fold, the “average ratio … (M/P) by AUC” value [3, 8] was 0.56 (0.44-0.66) and the “average ratio … (M/P) by AUC” value [3, 9] was 0.45. The “average ratio … (M/P) by AUC” value ([3]; LYT-100 100, 250, 500, 750 mg BID cohorts (FIG. 19), listed as SD-789) was 0.45 (0.37-0.50), the “dose dependence of AUC96-108” value ([3]; across all dose Cohorts, 100-1000 mg BID) was “linear dose proportionality” and the “AUC, % Change Fed vs Fasted” value [5, 14] was less than 5%. For the same molecule, the “Cmax, % Change Fed vs Fasted” value [5, 14] was less than 5%, the Tmax, Fasted [5, 15] was 0.75 h and the Tmax, Fed [5, 15] was 1 h.

In the case of `[2H]C([2H])(O)c1ccc(=O)n(-c2ccccc2)c1` [LYT-110, 5-(hydroxymethyl-d2)-pirfenidone], the Cmax [1, 10] is reported as 20.6 ng/mL, the “% AUC extrap” value [1, 11] is reported as 10.1% and the AUC0-t [1, 11] is reported as 111 ng·h/mL. The “AUC(inf)” value [1, 11] was 124 ng·h/mL, the Kel [1, 11] was 0.294 h⁻¹ and the t1/2 [1, 11] was 2.76 h. The tmax [1, 11] was 2.50 h, the “exposure and Cmax vs non-deuterated metabolite SD-788 from SD-559” value ([2]; 750 mg/kg, all days, both genders) was “almost twice” and the “AUC ratio Group 4 (LYT-100 at 750 mg/kg) / Group 5 (SD-559 at 750 mg/kg)” value [2, 7] was 2.50. For the same molecule, the “AUC ratio Group 4 (LYT-100 at 750 mg/kg) / Group 5 (SD-559 at 750 mg/kg)” value ([2]; Day 1, Male) was 2.22, the “AUC ratio Group 4 (LYT-100 at 750 mg/kg) / Group 5 (SD-559 at 750 mg/kg)” value ([2]; Day 28, Female) was 2.59 and the “AUC ratio Group 4 (LYT-100 at 750 mg/kg) / Group 5 (SD-559 at 750 mg/kg)” value ([2]; Day 28, Male) was 2.54. For the same molecule, the “dose proportionality of AUC0-24” value [2] was “dose proportional”, the “dose proportionality of Cmax” value [2] was “dose proportional” and the “exposure in rat relative to human” value [2] was roughly 1600 fold. The “average ratio … (M/P) by AUC” value [3, 8] was 0.0028 (0.0018-0.0038) and the “average ratio … (M/P) by AUC” value [3, 9] was 0.0025 (0.0020-0.0029).

With `O=c1ccc(CO)cn1-c1ccccc1` [LYT-111, 5-hydroxymethyl-pirfenidone] the Cmax [1, 12] was 17.1 ng/mL, the “% AUC extrap” value [1, 13] was 10.3% and the AUC0-t [1, 13] was 75.8 ng·h/mL. For the same molecule, the “AUC(inf)” value [1, 13] was 89.7 ng·h/mL, the Kel [1, 13] was 0.367 h⁻¹ and the t1/2 [1, 13] was 2.04 h. For the same molecule, the tmax [1, 13] was 2.50 h and the “overall systemic exposure (AUC) of metabolite greater after LYT-100 than after pirfenidone” value ([1]; single 801 mg dose each) was “approximately 50%”.

In the case of `Cc1ccc(=O)n(-c2ccccc2)c1` [Pirfenidone, 5-methyl-1-phenyl-1H-pyridin-2-one], the “AUC, Fasted” value ([4]; Pirfenidone @800 mg) is given as 69.7, the “AUC, Fed” value ([4]; Pirfenidone @800 mg) is given as 59.3 and the “Tmax, % Change Fed vs Fasted” value ([4]; Pirfenidone @800 mg) is given as 500%. For the same molecule, the “Tmax, Fasted” value ([4]; Pirfenidone @800 mg) was 0.5 h, the “share of recovered drug material in urine excreted as label” value [4] was “less than 1%” and the “diarrhea, frequency” value ([6]; Lancaster et al. 2017, IPF) was no more than 27.6 per 100PEY. For the same molecule, the “fatigue, frequency” value ([6]; Lancaster et al. 2017, IPF) was no more than 52.4 per 100PEY, the “nausea, frequency” value ([6]; Lancaster et al. 2017, IPF) was no more than 62.1 per 100 PEY and the “adverse drug reactions leading to permanent treatment discontinuation” value ([6]; PASSPORT study, Cottin et al. 2018) was 28.7%. The “patients with an adverse event” value ([6]; compassionate use program, Raghu & Thickett 2013) was 44%, the “patients with ADR leading to discontinuation” value ([6]; patients aged <65 years) was 7.5% and the “patients with ADR leading to dose modification/interruption” value ([6]; patients aged <65 years) was 18.0%. The “patients with ADR leading to discontinuation” value ([6]; patients aged ≥80 years) was 20.9%, the “patients with ADR leading to dose modification/interruption” value ([6]; patients aged ≥80 years) was 32.7% and the “elevations of AST and ALT to >3× ULN” value ([6]; phase III trials) was 3.2%. For the same molecule, the “reported AEs that were GI-related” value ([6]; single-center retrospective study of 351 patients) was 75%.
